Reference: patent US11780830B2, “Triazolone derivatives or salts thereof and pharmaceutical compositions comprising the same” (YUHAN CORPORATION, priority 2018, dated 2023)
Where a name gives a salt, the structure may show the parent alone.

Key:
Type in all cases: biochemical
[1] = target: T1, recombinant human MAO-B (monoamine oxidase-B) (Homo sapiens, UniProt P27338); assay: Activity on recombinant human MAO-B, method similar to the VAP-1 assay; conditions: substrate 1 mM benzylamine; read-out: Inhibitory Activity (IC50, nM) MAO-B
T1 construct: purchased Sigma-Aldrich
T1 sequence (P27338 1-520): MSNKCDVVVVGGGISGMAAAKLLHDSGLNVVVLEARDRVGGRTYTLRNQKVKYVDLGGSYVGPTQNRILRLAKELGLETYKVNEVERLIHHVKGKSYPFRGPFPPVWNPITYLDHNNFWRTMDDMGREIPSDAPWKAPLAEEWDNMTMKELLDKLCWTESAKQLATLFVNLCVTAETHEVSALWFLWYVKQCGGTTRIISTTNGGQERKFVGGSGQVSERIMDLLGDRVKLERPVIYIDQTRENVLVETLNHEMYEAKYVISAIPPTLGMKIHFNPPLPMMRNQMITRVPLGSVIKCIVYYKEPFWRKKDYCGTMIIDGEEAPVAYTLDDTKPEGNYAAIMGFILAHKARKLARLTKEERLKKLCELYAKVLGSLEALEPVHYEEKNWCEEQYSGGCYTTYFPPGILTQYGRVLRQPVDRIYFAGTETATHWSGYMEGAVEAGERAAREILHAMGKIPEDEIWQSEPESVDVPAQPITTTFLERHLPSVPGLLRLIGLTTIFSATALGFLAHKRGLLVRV
Summary of the method: (§1)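 First, serially diluted compounds were incubated with recombinant enzyme in 50 mM sodium phosphate, pH 7.4, for 30 min at 37° C. Next, Amplex Red (200 uM), HRP (1 U/mL) and tyramine (0.5 mM, MAO-A) or benzylamine (1 mM, MAO-B) were added. Then fluorescence was monitored over 1-2 h and IC50 fitted.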

[2] = target: T2, recombinant human MAO-A (monoamine oxidase-A) (Homo sapiens, UniProt P21397); assay: Activity on recombinant human MAO-A, method similar to the VAP-1 assay; conditions: substrate 0.5 mM tyramine; read-out: Inhibitory Activity (IC50, nM) MAO-A
T2 construct: purchased Sigma-Aldrich
T2 sequence (P21397 1-527): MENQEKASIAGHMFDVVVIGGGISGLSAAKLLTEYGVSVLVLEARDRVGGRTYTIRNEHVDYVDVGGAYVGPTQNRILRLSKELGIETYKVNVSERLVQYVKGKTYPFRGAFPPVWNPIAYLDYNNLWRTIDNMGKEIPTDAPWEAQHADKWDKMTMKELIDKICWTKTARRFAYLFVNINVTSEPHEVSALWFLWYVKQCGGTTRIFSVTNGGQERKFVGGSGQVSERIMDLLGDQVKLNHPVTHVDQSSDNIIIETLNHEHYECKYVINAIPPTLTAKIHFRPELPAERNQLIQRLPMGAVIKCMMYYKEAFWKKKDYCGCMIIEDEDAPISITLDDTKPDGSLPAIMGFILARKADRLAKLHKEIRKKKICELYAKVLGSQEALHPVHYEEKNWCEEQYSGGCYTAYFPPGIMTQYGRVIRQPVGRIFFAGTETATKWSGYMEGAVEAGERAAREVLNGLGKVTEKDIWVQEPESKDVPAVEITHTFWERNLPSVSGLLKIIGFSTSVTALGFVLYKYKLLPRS
Summary of the method: as §1

[3] = target: T3, recombinant human DAO (diamine oxidase) (Homo sapiens, UniProt P19801); assay: Activity on recombinant human DAO, method similar to the VAP-1 assay; conditions: substrate 1 mM putrescine; read-out: Inhibitory Activity (IC50, nM) DAO
T3 construct: purchased R&D systems
T3 sequence (P19801 20-751): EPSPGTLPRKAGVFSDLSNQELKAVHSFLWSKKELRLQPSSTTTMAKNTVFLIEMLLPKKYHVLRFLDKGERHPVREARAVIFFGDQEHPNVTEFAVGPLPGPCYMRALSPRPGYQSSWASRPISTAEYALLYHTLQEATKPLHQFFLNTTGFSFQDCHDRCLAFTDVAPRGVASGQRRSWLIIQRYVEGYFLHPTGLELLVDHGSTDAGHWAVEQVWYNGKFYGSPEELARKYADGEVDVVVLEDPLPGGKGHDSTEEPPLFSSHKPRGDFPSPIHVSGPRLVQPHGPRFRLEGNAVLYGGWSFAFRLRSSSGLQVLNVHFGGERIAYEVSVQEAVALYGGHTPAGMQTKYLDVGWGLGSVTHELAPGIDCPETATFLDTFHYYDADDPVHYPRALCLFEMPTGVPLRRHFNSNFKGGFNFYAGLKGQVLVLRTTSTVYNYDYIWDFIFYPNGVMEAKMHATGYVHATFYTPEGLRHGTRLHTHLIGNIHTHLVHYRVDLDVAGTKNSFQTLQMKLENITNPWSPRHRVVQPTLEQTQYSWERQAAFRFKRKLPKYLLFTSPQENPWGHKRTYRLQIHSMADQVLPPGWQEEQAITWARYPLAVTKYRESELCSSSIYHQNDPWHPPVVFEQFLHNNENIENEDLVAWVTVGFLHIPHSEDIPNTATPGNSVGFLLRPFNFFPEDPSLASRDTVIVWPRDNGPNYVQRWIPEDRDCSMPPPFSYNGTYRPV
Summary of the method: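 Inhibition of recombinant human diamine oxidase (DAO, R&D systems) was assessed by the same approach as the VAP-1 assay, using 1 mM putrescine as substrate. Hydrogen peroxide formed was detected through an HRP-coupled Amplex Red reaction yielding fluorescent resorufin, read at 544 nm excitation and 590 nm emission. IC50 values came from four-parameter logistic fitting in GraphPad Prism.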

recombinant human VAP-1 = target: T4, recombinant human VAP-1 (Homo sapiens, UniProt Q16853); assay: Activity on recombinant human VAP-1, HRP-coupled Amplex Red hydrogen peroxide assay; conditions: substrate 1 mM benzylamine; compound incubated with enzyme at 37° C. for 30 minutes; pH 7.4; read-out: Inhibitory Activity (IC50, nM) human VAP-1
T4 construct: purchased R&D systems
T4 sequence (Q16853 1-763): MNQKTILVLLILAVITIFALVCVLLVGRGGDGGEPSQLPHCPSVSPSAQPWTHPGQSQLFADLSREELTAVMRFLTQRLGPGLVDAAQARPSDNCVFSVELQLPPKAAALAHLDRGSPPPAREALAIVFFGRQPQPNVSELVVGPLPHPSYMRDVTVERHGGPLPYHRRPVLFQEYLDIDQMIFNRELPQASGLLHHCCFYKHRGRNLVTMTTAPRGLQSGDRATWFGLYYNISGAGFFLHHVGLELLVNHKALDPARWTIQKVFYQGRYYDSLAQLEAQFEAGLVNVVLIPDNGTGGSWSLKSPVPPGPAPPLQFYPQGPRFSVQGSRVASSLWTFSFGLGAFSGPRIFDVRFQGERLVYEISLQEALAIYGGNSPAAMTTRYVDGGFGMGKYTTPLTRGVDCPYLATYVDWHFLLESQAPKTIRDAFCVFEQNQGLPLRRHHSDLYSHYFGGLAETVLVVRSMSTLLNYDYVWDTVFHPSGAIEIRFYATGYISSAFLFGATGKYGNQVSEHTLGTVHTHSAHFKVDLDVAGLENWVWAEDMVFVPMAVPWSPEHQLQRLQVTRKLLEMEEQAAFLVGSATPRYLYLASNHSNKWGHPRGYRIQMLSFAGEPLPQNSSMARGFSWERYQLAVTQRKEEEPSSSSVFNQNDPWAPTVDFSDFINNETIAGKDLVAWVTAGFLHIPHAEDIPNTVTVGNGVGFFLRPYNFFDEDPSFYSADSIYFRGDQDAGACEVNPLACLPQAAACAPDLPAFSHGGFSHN
Summary of the method: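 H2O2 generation from 1 mM benzylamine was coupled via 1 U/mL HRP to 200 uM Amplex Red; inhibitors, serially diluted 1:3 over 8 points with under 1% final DMSO, had been preincubated 30 min at 37 °C. IC50 from percentage drop in rate.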

IC50 [1] [nM] | IC50 [2] [nM] | IC50 [3] [nM] | IC50 (recombinant human VAP-1) [nM] | SMILES
18000 | > 100000 | 470 | 1.1 | NC/C(=C\F)Cn1ncn(Cc2ccc(-c3ccc(C(=O)N4CCOCC4)cc3)s2)c1=O [Example 27, 2-[(2E)-2-(aminomethyl)-3-fluoroprop-2-en-1-yl]-4-(5-[4-(morpholin-4-ylcarbonyl)phenyl]thiophen-2-ylmethyl)-2,4-dihydro-3H-1,2,4-triazol-3-one hydrochloride]
200 | > 100000 | 120 | 0.5 | NC/C(=C\F)Cn1ncn(Cc2ccc(-c3cccc(S(=O)(=O)N4CCCC4)c3)s2)c1=O [Example 28, 2-[(2E)-2-(aminomethyl)-3-fluoroprop-2-en-1-yl]-4-(5-[3-(pyrrolidin-1-ylsulfonyl)phenyl]thiophen-2-ylmethyl)-2,4-dihydro-3H-1,2,4-triazol-3-one hydrochloride]
> 10000 | > 100000 | 150 | 1.4 | NC/C(=C\F)Cn1ncn(Cc2ccc(-c3ccc(S(=O)(=O)N4CCOCC4)cc3)s2)c1=O [Example 29, 2-[(2E)-2-(aminomethyl)-3-fluoroprop-2-en-1-yl]-4-(5-[4-(morpholin-4-ylsulfonyl)phenyl]thiophen-2-ylmethyl)-2,4-dihydro-3H-1,2,4-triazol-3-one hydrochloride]
73 | > 100000 | 120 | 0.67 | NC/C(=C\F)Cn1ncn(Cc2ccc(-c3ccc(-c4nnc[nH]4)cc3)s2)c1=O [Example 31, 2-[(2E)-2-(aminomethyl)-3-fluoroprop-2-en-1-yl]-4-(5-[4-(4H-1,2,4-triazol-3-yl)phenyl]thiophen-2-ylmethyl)-2,4-dihydro-3H-1,2,4-triazol-3-one]
600 | > 100000 | 790 | 0.8 | NC/C(=C\F)Cn1ncn(Cc2ccc(-c3cccc(-c4nnc[nH]4)c3)s2)c1=O [Example 33, 2-[(2E)-2-(aminomethyl)-3-fluoroprop-2-en-1-yl]-4-(5-[3-(4H-1,2,4-triazol-3-yl)phenyl]thiophen-2-ylmethyl)-2,4-dihydro-3H-1,2,4-triazol-3-one]
116 | > 100000 | 660 | 2 | NC/C(=C\F)Cn1ncn(Cc2ccc(-c3cccc(-c4ncon4)c3)s2)c1=O [Example 34, 2-[(2E)-2-(aminomethyl)-3-fluoroprop-2-en-1-yl]-4-(5-[3-(1,2,4-oxadiazol-3-yl)phenyl]thiophen-2-ylmethyl)-2,4-dihydro-3H-1,2,4-triazol-3-one]
247 | 39600 | 67 | 0.89 | NC/C(=C\F)Cn1ncn(Cc2ccc(-c3ccc(-c4noc(C5CC5)n4)cc3)s2)c1=O [Example 35, 2-[(2E)-2-(aminomethyl)-3-fluoroprop-2-en-1-yl]-4-(5-[4-(5-cyclopropyl-1,2,4-oxadiazol-3-yl)phenyl]thiophen-2-ylmethyl)-2,4-dihydro-3H-1,2,4-triazol-3-one hydrochloride]
101 | > 100000 | 344 | 0.7 | NC/C(=C\F)Cn1ncn(Cc2ccc(-c3cccc(-c4noc(C5CC5)n4)c3)s2)c1=O [Example 36, 2-[(2E)-2-(aminomethyl)-3-fluoroprop-2-en-1-yl]-4-(5-[3-(5-cyclopropyl-1,2,4-oxadiazol-3-yl)phenyl]thiophen-2-ylmethyl)-2,4-dihydro-3H-1,2,4-triazol-3-one hydrochloride]
590 | 5590 | 120 | 0.76 | CC(C)c1nc(-c2ccc(-c3ccc(Cn4cnn(C/C(=C/F)CN)c4=O)s3)cc2)no1 [Example 37, 2-[(2E)-2-(aminomethyl)-3-fluoroprop-2-en-1-yl]-4-[(5-4-[5-(propan-2-yl)-1,2,4-oxadiazol-3-yl]phenylthiophen-2-yl)methyl]-2,4-dihydro-3H-1,2,4-triazol-3-one hydrochloride]
1030 | 7900 | 2400 | 2.8 | CC(C)c1nc(-c2cccc(-c3ccc(Cn4cnn(C/C(=C/F)CN)c4=O)s3)c2)no1 [Example 38, 2-[(2E)-2-(aminomethyl)-3-fluoroprop-2-en-1-yl]-4-[(5-3-[5-(propan-2-yl)-1,2,4-oxadiazol-3-yl]phenylthiophen-2-yl)methyl]-2,4-dihydro-3H-1,2,4-triazol-3-one hydrochloride]
110 | > 100000 | 370 | 0.6 | NC/C(=C\F)Cn1ncn(Cc2ccc(-c3ccc(-c4ccon4)cc3)s2)c1=O [Example 40, 2-[(2E)-2-(aminomethyl)-3-fluoroprop-2-en-1-yl]-4-(5-[4-(1,2-oxazol-3-yl)phenyl]thiophen-2-ylmethyl)-2,4-dihydro-3H-1,2,4-triazol-3-one hydrochloride]
